Results: the kinase profiling compilation of Christmann-Franck et al. (2016)

Assays:
Assay in all cases: KINOMEscan competition binding
Details in all cases: compound 10.0 µM
CASK (human) = CASK (human) (UniProt O14936)
EPHB6 (human) = EPHB6 (human) (UniProt O15197)
CDKL3 (human) = CDKL3 (human) (UniProt Q8IVW4)
GRK7 (human) = GRK7 (human) (UniProt Q8WTQ7)
MAP3K1 (human) = MAP3K1 (human) (UniProt Q13233)
MAP3K15 (human) = MAP3K15 (human) (UniProt Q6ZN16)
HIPK2 (human) = HIPK2 (human) (UniProt Q9H2X6)
SNRK (human) = SNRK (human) (UniProt Q9NRH2)
SNRK (human), sequence (Q9NRH2 whole entry, looked up): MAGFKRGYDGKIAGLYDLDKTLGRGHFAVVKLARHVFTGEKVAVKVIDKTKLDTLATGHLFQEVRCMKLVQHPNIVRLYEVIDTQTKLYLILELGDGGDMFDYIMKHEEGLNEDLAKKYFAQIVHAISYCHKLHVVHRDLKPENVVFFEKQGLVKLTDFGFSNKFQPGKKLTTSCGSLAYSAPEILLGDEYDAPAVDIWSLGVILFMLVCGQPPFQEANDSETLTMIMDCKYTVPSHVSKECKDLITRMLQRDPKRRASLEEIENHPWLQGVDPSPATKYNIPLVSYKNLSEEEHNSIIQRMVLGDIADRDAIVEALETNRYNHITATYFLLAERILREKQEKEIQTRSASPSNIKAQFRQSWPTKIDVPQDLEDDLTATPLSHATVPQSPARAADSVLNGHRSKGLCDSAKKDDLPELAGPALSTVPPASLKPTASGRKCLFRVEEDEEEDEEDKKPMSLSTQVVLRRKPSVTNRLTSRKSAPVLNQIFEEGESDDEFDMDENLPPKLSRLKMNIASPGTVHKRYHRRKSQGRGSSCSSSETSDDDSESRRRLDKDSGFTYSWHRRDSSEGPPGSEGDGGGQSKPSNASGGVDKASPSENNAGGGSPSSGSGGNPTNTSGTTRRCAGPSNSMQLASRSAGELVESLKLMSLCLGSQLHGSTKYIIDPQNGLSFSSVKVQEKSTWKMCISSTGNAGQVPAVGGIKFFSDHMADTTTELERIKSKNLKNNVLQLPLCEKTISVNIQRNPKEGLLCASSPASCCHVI

PIP5K1C (human) = PIP5K1C (human) (UniProt O60331)
PIP5K1C (human), sequence (O60331 whole entry, looked up): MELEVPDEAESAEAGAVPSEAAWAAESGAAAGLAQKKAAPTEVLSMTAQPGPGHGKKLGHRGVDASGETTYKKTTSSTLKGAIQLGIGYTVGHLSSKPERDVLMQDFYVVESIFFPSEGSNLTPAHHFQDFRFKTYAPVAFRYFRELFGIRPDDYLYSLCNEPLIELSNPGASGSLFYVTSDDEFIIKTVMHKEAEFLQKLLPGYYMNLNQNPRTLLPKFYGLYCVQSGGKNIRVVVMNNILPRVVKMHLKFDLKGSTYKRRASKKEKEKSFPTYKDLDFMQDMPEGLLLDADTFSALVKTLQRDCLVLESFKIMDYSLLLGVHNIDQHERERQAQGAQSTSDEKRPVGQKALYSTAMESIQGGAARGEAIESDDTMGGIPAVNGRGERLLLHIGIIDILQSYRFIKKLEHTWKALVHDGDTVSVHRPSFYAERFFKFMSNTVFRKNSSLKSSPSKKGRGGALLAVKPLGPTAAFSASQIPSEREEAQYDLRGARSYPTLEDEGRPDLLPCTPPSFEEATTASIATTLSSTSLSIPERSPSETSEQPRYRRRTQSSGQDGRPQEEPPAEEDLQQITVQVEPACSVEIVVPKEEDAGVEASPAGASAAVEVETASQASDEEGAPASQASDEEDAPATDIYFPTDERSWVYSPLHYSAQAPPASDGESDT

CDK2 (human) = CDK2 (human) (UniProt P24941)
[1] = system: PIK3CA (human), P42336 [E545K]
DDR1 (human) = DDR1 (human) (UniProt Q08345)
PRKCI (human) = PRKCI (human) (UniProt P41743)
ERN1 (human) = ERN1 (human) (UniProt O75460)
PRPF4B (human) = PRPF4B (human) (UniProt Q13523)
IRAK4 (human) = IRAK4 (human) (UniProt Q9NWZ3)
DSTYK (human) = DSTYK (human) (UniProt Q6XUX3)
PI4KB (human) = PI4KB (human) (UniProt Q9UBF8)
SBK1 (human) = SBK1 (human) (UniProt Q52WX2)
SIK3 (human) = SIK3 (human) (UniProt Q9Y2K2)
[2] = system: PIK3CA (human), P42336 [E545A]
SGK3 (human) = SGK3 (human) (UniProt Q96BR1)
CDK13 (human) = CDK13 (human) (UniProt Q14004)
MET (human) = MET (human) (UniProt P08581)
VRK2 (human) = VRK2 (human) (UniProt Q86Y07)
VRK2 (human), sequence (Q86Y07 whole entry, looked up): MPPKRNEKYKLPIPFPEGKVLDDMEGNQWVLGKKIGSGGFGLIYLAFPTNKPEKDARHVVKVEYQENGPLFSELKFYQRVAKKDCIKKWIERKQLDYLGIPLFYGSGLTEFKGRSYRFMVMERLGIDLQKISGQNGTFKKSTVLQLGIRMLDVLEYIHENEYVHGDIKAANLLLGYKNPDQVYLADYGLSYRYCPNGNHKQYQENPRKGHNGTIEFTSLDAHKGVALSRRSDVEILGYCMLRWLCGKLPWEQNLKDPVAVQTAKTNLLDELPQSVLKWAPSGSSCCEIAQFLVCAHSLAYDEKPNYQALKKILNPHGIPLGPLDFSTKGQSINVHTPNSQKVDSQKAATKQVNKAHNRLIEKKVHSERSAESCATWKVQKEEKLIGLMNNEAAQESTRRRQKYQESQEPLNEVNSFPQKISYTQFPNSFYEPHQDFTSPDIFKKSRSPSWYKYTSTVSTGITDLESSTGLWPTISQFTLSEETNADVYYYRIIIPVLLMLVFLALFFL

[3] = system: PIK3CA (human), P42336 [C420R]
HUNK (human) = HUNK (human) (UniProt P57058)
HUNK (human), sequence (P57058 whole entry, looked up): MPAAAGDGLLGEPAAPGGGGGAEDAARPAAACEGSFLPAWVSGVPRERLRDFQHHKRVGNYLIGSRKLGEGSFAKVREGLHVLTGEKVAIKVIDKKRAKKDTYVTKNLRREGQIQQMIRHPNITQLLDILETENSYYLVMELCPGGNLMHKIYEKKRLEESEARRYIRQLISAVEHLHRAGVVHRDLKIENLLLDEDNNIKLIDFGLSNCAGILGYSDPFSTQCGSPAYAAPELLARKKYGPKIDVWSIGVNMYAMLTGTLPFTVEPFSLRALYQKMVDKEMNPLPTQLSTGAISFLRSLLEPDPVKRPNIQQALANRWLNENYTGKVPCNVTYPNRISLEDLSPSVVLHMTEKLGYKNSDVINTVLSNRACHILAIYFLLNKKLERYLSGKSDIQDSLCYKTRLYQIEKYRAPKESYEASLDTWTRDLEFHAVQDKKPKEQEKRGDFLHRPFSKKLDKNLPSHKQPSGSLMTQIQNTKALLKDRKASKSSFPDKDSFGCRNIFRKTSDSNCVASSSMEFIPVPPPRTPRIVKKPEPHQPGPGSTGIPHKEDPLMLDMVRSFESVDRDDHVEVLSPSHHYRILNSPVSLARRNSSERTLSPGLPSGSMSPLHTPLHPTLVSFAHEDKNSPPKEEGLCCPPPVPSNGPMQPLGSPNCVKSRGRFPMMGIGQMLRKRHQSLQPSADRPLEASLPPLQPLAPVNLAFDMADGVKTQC

MYLK3 (human) = MYLK3 (human) (UniProt Q32MK0)
PIP4K2C (human) = PIP4K2C (human) (UniProt Q8TBX8)
BRAF (human) = BRAF (human) (UniProt P15056)
BRAF (human), sequence (P15056 whole entry, looked up): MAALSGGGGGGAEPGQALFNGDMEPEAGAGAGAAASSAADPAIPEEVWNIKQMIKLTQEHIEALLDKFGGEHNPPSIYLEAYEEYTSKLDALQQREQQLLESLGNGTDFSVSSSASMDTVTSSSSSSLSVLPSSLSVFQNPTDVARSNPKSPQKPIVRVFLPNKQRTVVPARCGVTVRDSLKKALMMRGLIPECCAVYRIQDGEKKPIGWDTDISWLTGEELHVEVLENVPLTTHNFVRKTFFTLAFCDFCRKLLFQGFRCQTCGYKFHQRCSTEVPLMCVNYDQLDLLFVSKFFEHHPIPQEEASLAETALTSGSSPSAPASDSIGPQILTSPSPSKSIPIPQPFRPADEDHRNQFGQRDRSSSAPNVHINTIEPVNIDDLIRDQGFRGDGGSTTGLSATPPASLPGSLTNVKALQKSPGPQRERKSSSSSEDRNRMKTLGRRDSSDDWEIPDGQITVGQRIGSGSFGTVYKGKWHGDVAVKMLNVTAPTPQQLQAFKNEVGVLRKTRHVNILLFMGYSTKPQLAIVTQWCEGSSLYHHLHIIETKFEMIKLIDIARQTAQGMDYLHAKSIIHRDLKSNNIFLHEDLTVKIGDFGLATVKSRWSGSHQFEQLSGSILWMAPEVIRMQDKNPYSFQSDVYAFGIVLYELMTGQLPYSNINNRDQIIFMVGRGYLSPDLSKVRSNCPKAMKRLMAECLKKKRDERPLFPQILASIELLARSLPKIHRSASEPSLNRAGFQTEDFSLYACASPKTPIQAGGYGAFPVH

CPK1 (P.falciparum) = system: CPK1 (P.falciparum)
TBK1 (human) = TBK1 (human) (UniProt Q9UHD2)
[4] = system: PIK3CA (human), P42336 [Q546K]
PIK3CA (human) = PIK3CA (human) (UniProt P42336)
[5] = system: EGFR (human), P00533 [746-750 del]
[6] = system: PIK3CA (human), P42336 [H1047Y]
[7] = system: KIT (human), P10721 [V559D/T670I]
BTK (human) = BTK (human) (UniProt Q06187)
MTOR (human) = MTOR (human) (UniProt P42345)
[8] = system: EGFR (human), P00533 [L861Q]

MAP3K15 (human), sequence (Q6ZN16 whole entry, looked up): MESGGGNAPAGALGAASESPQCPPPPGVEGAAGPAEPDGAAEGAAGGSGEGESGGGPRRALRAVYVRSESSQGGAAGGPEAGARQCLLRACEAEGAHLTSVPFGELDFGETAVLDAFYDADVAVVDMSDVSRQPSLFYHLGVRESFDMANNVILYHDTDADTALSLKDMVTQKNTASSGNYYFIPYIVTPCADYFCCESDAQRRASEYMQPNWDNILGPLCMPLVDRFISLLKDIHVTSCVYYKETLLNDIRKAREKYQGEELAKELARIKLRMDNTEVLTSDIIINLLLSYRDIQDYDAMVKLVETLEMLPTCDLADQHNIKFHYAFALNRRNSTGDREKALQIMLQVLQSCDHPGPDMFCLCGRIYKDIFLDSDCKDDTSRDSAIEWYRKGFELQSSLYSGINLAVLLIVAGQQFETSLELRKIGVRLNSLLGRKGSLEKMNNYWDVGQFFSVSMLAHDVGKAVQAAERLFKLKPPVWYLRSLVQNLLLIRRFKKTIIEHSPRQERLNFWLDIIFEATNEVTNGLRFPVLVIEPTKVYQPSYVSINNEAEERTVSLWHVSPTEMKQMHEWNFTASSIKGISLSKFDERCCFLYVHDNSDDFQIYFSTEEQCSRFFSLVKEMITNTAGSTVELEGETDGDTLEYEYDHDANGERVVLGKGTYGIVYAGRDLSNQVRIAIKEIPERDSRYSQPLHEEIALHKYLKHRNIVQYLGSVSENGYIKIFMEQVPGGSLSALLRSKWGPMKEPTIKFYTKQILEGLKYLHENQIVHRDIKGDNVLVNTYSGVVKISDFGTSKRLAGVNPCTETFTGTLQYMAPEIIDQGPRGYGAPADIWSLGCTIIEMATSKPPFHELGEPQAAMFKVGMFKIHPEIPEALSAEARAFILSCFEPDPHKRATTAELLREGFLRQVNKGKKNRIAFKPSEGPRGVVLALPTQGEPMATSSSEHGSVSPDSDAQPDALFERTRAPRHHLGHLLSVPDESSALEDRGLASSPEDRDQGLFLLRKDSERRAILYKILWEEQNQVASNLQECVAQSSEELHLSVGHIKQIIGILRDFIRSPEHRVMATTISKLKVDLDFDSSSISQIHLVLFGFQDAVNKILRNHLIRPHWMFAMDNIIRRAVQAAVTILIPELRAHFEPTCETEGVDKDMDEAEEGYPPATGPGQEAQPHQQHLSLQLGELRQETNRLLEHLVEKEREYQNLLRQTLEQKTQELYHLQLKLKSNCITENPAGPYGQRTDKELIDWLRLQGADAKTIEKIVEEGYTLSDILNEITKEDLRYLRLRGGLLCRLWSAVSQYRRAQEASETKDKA

CCC(=O)N1CCN(c2ccc(-n3c(=O)ccc4cnc5ccc(-c6cnc7ccccc7c6)cc5c43)cc2C(F)(F)F)CC1
kinase still bound, per cent of control (CASK (human)): 100% | kinase still bound, per cent of control (EPHB6 (human)): 80% | kinase still bound, per cent of control (CDKL3 (human)): 92% | kinase still bound, per cent of control (GRK7 (human)): 100% | kinase still bound, per cent of control (MAP3K1 (human)): 92% | kinase still bound, per cent of control (MAP3K15 (human)): 100% | kinase still bound, per cent of control (HIPK2 (human)): 58% | kinase still bound, per cent of control (SNRK (human)): 60% | kinase still bound, per cent of control (PIP5K1C (human)): 80% | kinase still bound, per cent of control (CDK2 (human)): 6.2% | kinase still bound, per cent of control [1]: 0.6% | kinase still bound, per cent of control (DDR1 (human)): 100% | kinase still bound, per cent of control (PRKCI (human)): 85% | kinase still bound, per cent of control (ERN1 (human)): 100% | kinase still bound, per cent of control (PRPF4B (human)): 100% | kinase still bound, per cent of control (IRAK4 (human)): 90% | kinase still bound, per cent of control (DSTYK (human)): 28% | kinase still bound, per cent of control (PI4KB (human)): 96% | kinase still bound, per cent of control (SBK1 (human)): 88% | kinase still bound, per cent of control (SIK3 (human)): 89% | kinase still bound, per cent of control [2]: 1% | kinase still bound, per cent of control (SGK3 (human)): 100% | kinase still bound, per cent of control (CDK13 (human)): 80% | kinase still bound, per cent of control (MET (human)): 84% | kinase still bound, per cent of control (VRK2 (human)): 100% | kinase still bound, per cent of control [3]: 0.7% | kinase still bound, per cent of control (HUNK (human)): 91% | kinase still bound, per cent of control (MYLK3 (human)): 94% | kinase still bound, per cent of control (PIP4K2C (human)): 58% | kinase still bound, per cent of control (BRAF (human)): 59% | kinase still bound, per cent of control (CPK1 (P.falciparum)): 36% | kinase still bound, per cent of control (TBK1 (human)): 93% | kinase still bound, per cent of control [4]: 6.8%

C[C@@H](Oc1cc(-n2cnc3ccc(CN4CCN(C)CC4)cc32)sc1C(N)=O)c1ccccc1C(F)(F)F
kinase still bound, per cent of control (CASK (human)): 50% | kinase still bound, per cent of control (PIK3CA (human)): 52% | kinase still bound, per cent of control (EPHB6 (human)): 59% | kinase still bound, per cent of control (CDKL3 (human)): 100% | kinase still bound, per cent of control (GRK7 (human)): 33% | kinase still bound, per cent of control (MAP3K1 (human)): 3.7% | kinase still bound, per cent of control (MAP3K15 (human)): 24% | kinase still bound, per cent of control (HIPK2 (human)): 36% | kinase still bound, per cent of control (SNRK (human)): 100% | kinase still bound, per cent of control (PIP5K1C (human)): 18% | kinase still bound, per cent of control (CDK2 (human)): 85% | kinase still bound, per cent of control [1]: 71% | kinase still bound, per cent of control (DDR1 (human)): 100% | kinase still bound, per cent of control (ERN1 (human)): 34% | kinase still bound, per cent of control (PRPF4B (human)): 39% | kinase still bound, per cent of control [5]: 100% | kinase still bound, per cent of control [6]: 32% | kinase still bound, per cent of control [7]: 37% | kinase still bound, per cent of control (IRAK4 (human)): 43% | kinase still bound, per cent of control (DSTYK (human)): 34% | kinase still bound, per cent of control (PI4KB (human)): 100% | kinase still bound, per cent of control (SBK1 (human)): 55% | kinase still bound, per cent of control (BTK (human)): 100% | kinase still bound, per cent of control (SIK3 (human)): 69% | kinase still bound, per cent of control (MTOR (human)): 55% | kinase still bound, per cent of control [2]: 40% | kinase still bound, per cent of control (SGK3 (human)): 28% | kinase still bound, per cent of control (CDK13 (human)): 26% | kinase still bound, per cent of control (MET (human)): 76% | kinase still bound, per cent of control (VRK2 (human)): 100% | kinase still bound, per cent of control [3]: 55% | kinase still bound, per cent of control (HUNK (human)): 78% | kinase still bound, per cent of control (MYLK3 (human)): 100% | kinase still bound, per cent of control (PIP4K2C (human)): 62% | kinase still bound, per cent of control (BRAF (human)): 79% | kinase still bound, per cent of control (CPK1 (P.falciparum)): 62% | kinase still bound, per cent of control (TBK1 (human)): 84% | kinase still bound, per cent of control [8]: 100% | kinase still bound, per cent of control [4]: 29%
